Target: Aβ1–40 fibrils (amyloid-β) (Homo sapiens, UniProt P05067)
Type: binding

Chain of Aβ1–40 fibrils (amyloid-β) (P05067 672-711): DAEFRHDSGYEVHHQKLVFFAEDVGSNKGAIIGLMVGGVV

Ki	SMILES
8.6 nM	COc1cc(/C=C/c2cc(C)c(O)c(C)c2)ccc1/C=C/c1ccc(C(=O)O)cc1 [compound 1, 4-((E)-4-((E)-4-hydroxy-3,5-dimethylstyryl)-2-methoxystyryl) benzoic acid]
23.6 nM	COc1cc(/C=C/c2ccc(O)cc2)ccc1/C=C/c1ccc(O)cc1 [compound 2, methoxy-X04]

Source: paper PMC8788879 (Nuclear medicine and biology, 2020)
